The values below come from patent publication US20130071936A1, “FRET-BASED ZINC(II) ION INDICATOR” (The Florida State University Research Foundation, Inc., priority 2011, published 2013).

Several values for one entry are separate records, joined by “and”; a condition that tells them apart may be missing. Identical values can stand only once. Marks after values point to notes of the source that are not given here.

The nature of data set [1]: Absorption and fluorescence titration of the indicator with ZnCl2 in CH3CN. In kind it is binding. How it is done: FIG. 3 is a graph depicting fluorescence intensity increase (F/F0 at 630 nm) of zinc(II) ion indicator (4) (3.0 μM), with increasing [ZnCl2]. The solid line is the fitting curve of F/F0 vs. [Zn^2+] based on a 1:1 binding isotherm equation. See Zhu, L.; Zhong, Z.; Anslyn, E. V. J. Am. Chem. Soc. 2005, 127, 4260-4269.
FIGS. 4A and 4B are graphs depicting (4A) Absorption spectra for the titration of zinc(II) ion indicator (4) (3.0 μM) with ZnCl2 (0-18 μM) in CH3CN, and (4B) Fluorescence spectral change of zinc(II) ion indicator (4) (3.0 μM) with different concentrations of ZnCl2 (0-18 μM) in CH3CN (λex 400 nm).
FIG. 5 is a graph depicting fluorescence spectral change of zinc(II) ion indicator (4) (2.5 μM) with different concentrations of ZnCl2 (0-16 μM) in CH3CN (λex=600 nm).
The syntheses of the separate FRET donor and acceptor systems (1-3) and indicators for zinc(II) (4, 5) are described in the examples. Absorption spectrum of zinc(II) ion indicator compound (4) in CH3CN consists of two bands over 300 nm (FIG. 4A). The band centered at 346 nm corresponds to the absorption of the bipy-containing FRET donor moiety, which we term the D band. The band centered at 600 nm corresponds to the NDI moiety which is termed the A band. Upon addition of increasing amount of ZnCl2, as a result of zinc(II) coordination at the bipy moiety, the charge-transfer D band undergoes a bathochromic shift from 346 nm to 370 nm. The A band, meanwhile, experiences a slight hypochromic shift.
The fluorescence titration profile of zinc(II) ion indicator compound (4) with ZnCl2 upon excitation at 400 nm is shown in FIG. 4B. […] This signal may have arisen from the direct excitation of the NDI component. Upon addition of increasing amount of ZnCl2 from 0-18 μM, the emission at 630 nm intensifies, and reaches saturation with 12-fold enhancement in integrated intensity (See Table 1 for spectroscopic data). […] These observations are consistent with the involvement of a zinc(II)-modulated intramolecular excitation energy transfer process. Furthermore, the differed sensitivity to excitation wavelength of zinc(II) ion indicator (4) offers an opportunity to correlate [Zn^2+] and fluorescence change ratiometrically. […]
Reagents and solvents were purchased from various commercial sources and used without further purification unless otherwise stated. […] Silica and alumina gel was flame-dried under vacuum to remove absorbed moisture before use. ^1H NMR spectra were recorded at 300 MHz on a Varian Mercury spectrometer. ^13C NMR spectra were recorded at 125 MHz, on a Bruker Avance spectrometer. […] Spectrophotometric and fluorometric titrations were conducted on a Varian Cary 100 Bio UV-Visible Spectrophotometer and a Varian Cary Eclipse Fluorescence Spectrophotometer, respectively, with a 1-cm standard quartz cell. […]

A short description of data set [2]: Spectroscopic data (absorption, emission, fluorescence quantum yield) in CH3CN. In kind it is physicochemical. The procedure:
Reagents and solvents were purchased from various commercial sources and used without further purification unless otherwise stated. CH3CN (OmniSolv, EMD) were directly used in titration experiments without purification. All reactions were carried out in oven- or flame-dried glassware. Analytical thin-layer chromatography (TLC) was performed using pre-coated TLC plates with silica gel 60 F254 (EMD) or with aluminum oxide 60 F254 neutral (EMD). Flash column chromatography was performed using 40-63 μm (230-400 mesh ASTM) silica gel (EMD) or alumina (80-200 mesh, pH 9-10, EMD) as the stationary phases. Silica and alumina gel was flame-dried under vacuum to remove absorbed moisture before use. ^1H NMR spectra were recorded at 300 MHz on a Varian Mercury spectrometer. ^13C NMR spectra were recorded at 125 MHz, on a Bruker Avance spectrometer. All chemical shifts were reported in δ units relative to tetramethylsilane. High resolution mass spectra were obtained at the Mass Spectrometry Laboratory at Florida State University. ESI spectra were obtained on a JEOL AccuTOF spectrometer. Spectrophotometric and fluorometric titrations were conducted on a Varian Cary 100 Bio UV-Visible Spectrophotometer and a Varian Cary Eclipse Fluorescence Spectrophotometer, respectively, with a 1-cm standard quartz cell. The fluorescence quantum yield was determined by comparison of the integrated area of corrected emission spectrum with reference of N,N′-di-n-octyl-2,6-di-n-octylamino-1,4,5,8-naphthalenetetracarboxylic acid diimide (φf=0.53 in CH2Cl2) as the reference by the literature method. See Thalacker, C.; Röger, C.; Würthner, F. J. Org.

A short description of data set [3]: Fluorescence response to various metal ions (metal ion selectivity). The settings on record: indicator 3.0 μM, 1:9 water/CH3CN pH 7.2, λex 400 nm. The procedure: FIG. 8 is a chart depicting fluorescence spectroscopic responses of zinc(II) ion indicator (4) (3.0 μM, λex 400 nm) to various metal ions in 1:9 water/CH3CN mixture at pH 7.2 (30 mM of MOPS buffer). Clear bars represent intensity in the presence of various metal ions (perchlorate salt). Metal ion concentrations of Na^+, K^+, Ca^2+, Mg^2+ were 1.0 mM and for other ions 30 μM. Hatch marked bars represent the fluorescence following subsequent addition of Zn(ClO4)2 (30 μM).
The fluorescence dependence of zinc(II) ion indicator (4) on the identity of metal ion was evaluated (FIG. 8). […] The observed metal ion selectivity can be understood based on the Irving-Williams series and HSAB theory.

As a reminder, the Kd is the free concentration of one partner at which half of the binding sites on the other are occupied at equilibrium, for simple one-to-one binding. Turning to `COCCCNc1cc2c3c(c(NCCOc4ccc(/C=C/c5ccc(-c6ccc(COCCOCCOC)cn6)nc5)cc4)cc4c3c1C(=O)N(CCCOC)C4=O)C(=O)N(CCCOC)C2=O` [Compound (4)], in data set [1] (CH3CN, ZnCl2 0-18 μM, λex 400 nm), the “enhancement in integrated intensity of emission at 630 nm at saturation” value turned out to be 12 fold. For the same molecule, the “D band absorption after bathochromic shift upon addition of ZnCl2” value in data set [1] (CH3CN, increasing ZnCl2) came out at 370 nm. Besides, the “fluorescence intensity on variation of zinc(II) concentration when NDI is directly excited” value in data set [1] (CH3CN, λex 600 nm) is listed as “not affected much”. Moreover, in data set [1] (indicator 3.0 μM, F/F0 at 630 nm vs [ZnCl2], fit to 1:1 binding isotherm, read-out: Dissociation constant Kd), the dissociation constant (Kd) was found to be 9.1 µM. Besides, in data set [2] (complexes: Zn(ClO4)2 10 equiv.), the “λabs (A band)” value was 600 nm and 600 (A) nm; the “λabs (D band)” value is 346 nm and 346 (D) nm; the λem is 633 nm; the “∈/10^3 (A band)” value is given as 22 10^3 M^-1 cm^-1. For the same molecule, the “∈/10^3 (D band)” value in data set [2] (complexes: Zn(ClO4)2 10 equiv.) was 76 10^3 M^-1 cm^-1. Moreover, the φf in data set [2] (λex = 565 nm) is on record as 0.41^c. Also, in data set [3] (30 μM metal ion), the “fluorescence response to cadmium(II)” value is on record as “acts similarly to zinc(II) in resulting strong fluorescence from NDI”; the “fluorescence response to iron(II) and copper(II)” value is given as “quench fluorescence”; the “fluorescence response to manganese(II) and lead(II)” value is on record as “fail to alter the fluorescence”. Besides, the “fluorescence response to alkali and alkaline earth metal ions” value in data set [3] (Na+, K+, Ca2+, Mg2+ 1.0 mM) is “do not elicit a fluorescence response”.
